Columns and labels:
[1] = target: T1, Dual specificity protein kinase TTK (Homo sapiens, UniProt P33981); test: Inhibition of GST-fused full length human TTK compound pre-incubated for 15 mins prior ATP addition by MBP-based assay
T1 sequence (P33981 whole entry): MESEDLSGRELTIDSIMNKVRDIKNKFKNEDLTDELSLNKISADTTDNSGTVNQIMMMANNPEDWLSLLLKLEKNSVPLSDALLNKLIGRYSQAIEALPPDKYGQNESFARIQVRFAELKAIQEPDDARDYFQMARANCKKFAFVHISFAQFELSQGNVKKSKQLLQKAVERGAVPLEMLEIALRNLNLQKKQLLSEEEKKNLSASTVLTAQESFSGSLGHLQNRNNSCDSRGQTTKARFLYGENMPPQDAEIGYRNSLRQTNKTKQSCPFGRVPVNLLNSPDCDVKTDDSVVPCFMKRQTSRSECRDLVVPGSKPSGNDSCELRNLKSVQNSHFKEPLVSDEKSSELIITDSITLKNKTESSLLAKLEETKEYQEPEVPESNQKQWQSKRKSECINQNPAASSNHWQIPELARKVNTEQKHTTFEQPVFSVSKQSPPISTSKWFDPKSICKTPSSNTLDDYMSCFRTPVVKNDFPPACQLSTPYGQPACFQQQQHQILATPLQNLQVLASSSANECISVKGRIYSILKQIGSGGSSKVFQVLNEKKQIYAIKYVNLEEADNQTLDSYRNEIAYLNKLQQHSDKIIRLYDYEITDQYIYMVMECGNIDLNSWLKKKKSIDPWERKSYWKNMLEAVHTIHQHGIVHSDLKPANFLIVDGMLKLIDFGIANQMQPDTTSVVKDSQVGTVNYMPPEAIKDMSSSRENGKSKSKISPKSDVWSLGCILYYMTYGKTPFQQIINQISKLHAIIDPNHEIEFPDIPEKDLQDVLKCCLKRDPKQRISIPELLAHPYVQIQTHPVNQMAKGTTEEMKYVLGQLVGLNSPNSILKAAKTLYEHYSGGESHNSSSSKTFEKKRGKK

[2] = target: T1, Dual specificity protein kinase TTK; test: Inhibition of SUMO-tagged human TTK (1-275 residues) compound pre-incubated for 15 mins prior ATP addition by MBP-based assay
[3] = Growth inhibition of human HCT116 cells after 5 days by SRB assay; assay type: functional; conditions: HCT-116, 120 h
[4] = system: MDA-MB-468; test: Growth inhibition of human MDA-MB-468 cells after 5 days by SRB assay; assay type: functional; conditions: MDA-MB-468, 120 h
[5] = system: A549; test: Growth inhibition of human A549 cells after 5 days by SRB assay; assay type: functional; conditions: A549, 120 h

IC50 [1] [nM]	IC50 [2] [nM]	GI50 [4] [nM]	GI50 [5] [nM]	SMILES	GI50 [3] [nM]
–	17	–	–	CCc1cccc(CC)c1CC(=O)Nc1ccc2[nH]nc(-c3cccc(S(N)(=O)=O)c3)c2c1	180
–	39	–	–	NS(=O)(=O)c1cccc(-c2n[nH]c3ccc(NC(=O)Cc4ccccc4)cc23)c1	21000
–	26	2200	2500	COC(C(=O)Nc1ccc2[nH]nc(-c3cccc(S(N)(=O)=O)c3)c2c1)c1ccccc1 (racemic)	1060
–	340	–	–	NS(=O)(=O)c1cccc(-c2n[nH]c3ccc(NS(=O)(=O)c4cccs4)cc23)c1	3400
–	30	3200	2400	CO[C@@H](C(=O)Nc1ccc2[nH]nc(-c3cccc(S(N)(=O)=O)c3)c2c1)c1ccccc1	850
–	25	–	–	Cc1ccccc1CC(=O)Nc1ccc2[nH]nc(-c3cccc(S(N)(=O)=O)c3)c2c1	1800
–	90	–	–	NS(=O)(=O)c1cccc(-c2n[nH]c3ccc(NC(=O)Cc4ccccn4)cc23)c1	6890
–	380	–	–	NS(=O)(=O)c1cccc(-c2n[nH]c3ccc(OCCc4cccs4)cc23)c1	750
–	280	–	–	NS(=O)(=O)c1cccc(-c2n[nH]c3ccc(NC(=O)c4cccs4)cc23)c1	–
–	980	–	–	NS(=O)(=O)c1cccc(-c2n[nH]c3ccc(NC(=O)CCc4ccccc4)cc23)c1	> 50000
–	18000	–	–	CC(=O)Nc1ccc2c(-c3cccc(S(N)(=O)=O)c3)n[nH]c2c1	–
–	> 5000	–	–	Cc1ccccc1NC(=O)Cc1ccc2[nH]nc(-c3cccc(S(N)(=O)=O)c3)c2c1	> 50000
–	640	–	–	CC(=O)Nc1ccc2[nH]nc(-c3cccc(S(N)(=O)=O)c3)c2c1	–
–	16	–	–	NS(=O)(=O)c1cccc(-c2n[nH]c3ccc(NC(=O)Cc4cccs4)cc23)c1	2900
–	390	–	–	NS(=O)(=O)c1cccc(-c2n[nH]c3ccc(NC(=O)Nc4ccccc4)cc23)c1	41000
–	26	2200	3600	CO[C@H](C(=O)Nc1ccc2[nH]nc(-c3cccc(S(N)(=O)=O)c3)c2c1)c1ccccc1	800
–	310	–	–	NS(=O)(=O)c1cccc(-c2n[nH]c3ccc(NC(=O)C4(c5ccccc5)CC4)cc23)c1	7300
–	14	1400	800	CCOC(C(=O)Nc1ccc2[nH]nc(-c3cccc(S(N)(=O)=O)c3)c2c1)c1ccccc1 (racemic)	400
–	4300	–	–	NS(=O)(=O)c1cccc(-c2n[nH]c3cc(NC(=O)c4cccs4)ccc23)c1	–
–	24	–	–	CCC(C(=O)Nc1ccc2[nH]nc(-c3cccc(S(N)(=O)=O)c3)c2c1)c1ccccc1 (racemic)	1300
–	340	–	–	NS(=O)(=O)c1cccc(-c2n[nH]c3ccc(NC(=O)Cc4ccncc4)cc23)c1	50000
–	33	–	–	NS(=O)(=O)c1cccc(-c2n[nH]c3ccc(C(=O)NCc4cccs4)cc23)c1	1800

The next lines start with the compound.

SMILES	IC50 [1] [nM]	IC50 [2] [nM]	GI50 [4] [nM]	GI50 [5] [nM]	GI50 [3] [nM]
O=Cc1ccc2c(-c3cccnc3)n[nH]c2c1	12000	–	–	–	–
CN(C)[C@H](C(=O)Nc1ccc2[nH]nc(-c3cccc(S(N)(=O)=O)c3)c2c1)c1ccccc1	–	11	840	830	520
Oc1c2ccccc2c2c3c(cccc13)N=N2 [SP-600125]	2500	–	–	–	–
CN(C)C(C(=O)Nc1ccc2[nH]nc(-c3cccc(S(N)(=O)=O)c3)c2c1)c1ccccc1 (racemic)	–	12	1400	1700	660
CCc1cccc(CC)c1NC(=O)N(C)c1ccc2[nH]nc(-c3cccc(S(N)(=O)=O)c3)c2c1	–	> 50000	–	–	> 50000
COc1ccc2[nH]nc(-c3cccc(S(N)(=O)=O)c3)c2c1	–	600	–	–	–
Cc1ccccc1CNC(=O)c1ccc2[nH]nc(-c3cccc(S(N)(=O)=O)c3)c2c1	–	18	–	–	1800
NS(=O)(=O)c1cccc(-c2n[nH]c3ccc(CNC(=O)c4ccccc4)cc23)c1	–	550	–	–	700
NS(=O)(=O)c1cccc(-c2n[nH]c3ccc(C(=O)NC(c4ccccc4)C4CC4)cc23)c1 (racemic)	–	16	–	–	–
NC(=O)c1cccc(-c2n[nH]c3cccc(Cl)c23)c1	17000	–	–	–	–
NS(=O)(=O)c1cccc(-c2n[nH]c3ccc(C(=O)NC4(c5ccccc5)CC4)cc23)c1	–	35	–	–	3300
CN(C)[C@@H](C(=O)Nc1ccc2[nH]nc(-c3cccc(S(N)(=O)=O)c3)c2c1)c1ccccc1	–	15	1300	3400	1100
NS(=O)(=O)c1cccc(-c2n[nH]c3ccc(C(=O)NC(c4ccccc4)C4CCCCC4)cc23)c1 (racemic)	–	47	–	–	810
Cc1cccc(CS(=O)(=O)Nc2ccc3[nH]nc(-c4cccc(S(N)(=O)=O)c4)c3c2)c1	–	330	–	–	28000
NS(=O)(=O)c1cccc(-c2n[nH]c3cccc(-c4c(F)cccc4F)c23)c1	–	1400	–	–	–
NS(=O)(=O)c1cccc(-c2n[nH]c3ccc(C(=O)NCc4ccccc4)cc23)c1	–	90	–	–	1800

SMILES	IC50 [1] [nM]	IC50 [2] [nM]	GI50 [4] [nM]	GI50 [5] [nM]	GI50 [3] [nM]
CN(Cc1ccccc1)C(=O)c1ccc2[nH]nc(-c3cccc(S(N)(=O)=O)c3)c2c1	–	250	–	–	180
NS(=O)(=O)c1cccc(-c2n[nH]c3ccc(OCc4ccccc4)cc23)c1	–	580	–	–	–
NS(=O)(=O)c1cccc(-c2n[nH]c3ccc(NC(=O)C(c4ccccc4)C4CCCCC4)cc23)c1 (racemic)	–	61	–	–	430
NS(=O)(=O)c1cccc(-c2n[nH]c3ccc(NC(=O)C(c4ccccc4)N4CCCCC4)cc23)c1 (racemic)	–	10	690	400	270
CNC(=O)c1ccc2c(-c3cccc(S(N)(=O)=O)c3)n[nH]c2c1	–	11000	–	–	–
NS(=O)(=O)c1cccc(-c2n[nH]c3ccc(NC(=O)C(c4ccccc4)N4CCCC4)cc23)c1 (racemic)	–	8.9	350	230	110
NS(=O)(=O)c1cccc(-c2n[nH]c3ccc(-c4ccccc4)cc23)c1	–	4300	–	–	–
CCc1cccc(CC)c1NS(=O)(=O)Nc1ccc2[nH]nc(-c3cccc(S(N)(=O)=O)c3)c2c1	–	2600	–	–	50000
NS(=O)(=O)c1cccc(-c2n[nH]c3cc(-c4ccccc4)ccc23)c1	–	5400	–	–	–
NS(=O)(=O)c1cccc(-c2n[nH]c3ccc(NC(=O)C(c4ccccc4)C4CCCC4)cc23)c1 (racemic)	–	53	–	–	630
COc1cccc2[nH]nc(-c3cccc(S(N)(=O)=O)c3)c12	–	2300	–	–	–
CCc1cccc(CC)c1CNC(=O)c1ccc2[nH]nc(-c3cccc(S(N)(=O)=O)c3)c2c1	–	80	–	–	700
CC(C)C(C(=O)Nc1ccc2[nH]nc(-c3cccc(S(N)(=O)=O)c3)c2c1)c1ccccc1 (racemic)	–	46	–	–	–
NS(=O)(=O)c1cccc(-c2n[nH]c3ccc(NS(=O)(=O)Nc4ccccc4)cc23)c1	–	710	–	–	6890
NS(=O)(=O)c1cccc(-c2n[nH]c3ccc(C(=O)NC(c4ccsc4)C4CC4)cc23)c1 (racemic)	–	4	–	–	610

From ChEMBL document CHEMBL3352261, “Discovery of inhibitors of the mitotic kinase TTK based on N-(3-(3-sulfamoylphenyl)-1H-indazol-5-yl)-acetamides and carboxamides” (Bioorg Med Chem, 2014)
